The values below come from patent publication US20120015953A1, “METHODS AND COMPOSITIONS FOR THE TREATMENT OF ALLERGY” (priority 2010, published 2012).

Assay [1] has as its system passively sensitized guinea pigs. As to the kind of experiment: acute phase clinical score of conjunctivitis, passively sensitized guinea pigs challenged with ovalbumin. The assay is classed as in vivo, guinea pig. Conditions: for effect on olopatadine's inhibition of the acute clinical score: H4 antagonist topical once daily, 0.2% olopatadine 5 minutes later, antigen challenge 60 minutes after dose, scored 30 min after challenge (FIGS. 1, 4); for effect on olopatadine's acute phase effects under different dosing regimens: administered before, after, or in the same drop as 0.2% olopatadine (FIGS. 3, 6); for effect on acute phase clinical score on their own: compound alone, topical, 1 hour prior to challenge. The method, then:
(§1) H1 and H4 antagonists were evaluated using an in vivo assay to determine the effect of the H4 antagonist on a co-administered H1 antagonist. Male Hartley VAF outbred guinea pigs were passively sensitized to ovalbumin by a single OD subconjunctival injection of undiluted guinea pig anti-ovalbumin antiserum 24 hours before OD topical challenge with 500 μg ovalbumin in saline. Control animals were injected with saline only and challenged with ovalbumin. To determine acute phase drug efficacy, 30 min after challenge animals were clinically scored by a masked observer for severity of signs of conjunctivitis based on a standard scale.
(§2) Test compounds were administered topically 1 hour prior to challenge. Twenty-four hours after challenge, animals were euthanized and conjunctivae were harvested for determination of tissue eosinophil peroxidase (EPO) concentration as a marker of allergic inflammation and late phase effects. Homogenates of freshly collected tissues were prepared by shaking the tissues in 2 mL round-bottom tubes containing 0.5 mL of homogenization buffer (50 mM Tris HCl, pH 8.0, 6 mM KBr) and one 5-mm stainless steel bead on a Qiagen TissueLyser at 30 Hz for 5 min. Homogenates were frozen and thawed once, then centrifuged at 10,000 rpm for 5 min. EPO activity in supernatants was measured by reacting diluted homogenates with a solution of 6 mM o-phenylenediamine substrate and 8.8 mM H2O2 in homogenization buffer for 3 min. The reaction was stopped with 4M H2SO4 and absorbances were measured at […] on a spectrophotometry plate reader. Total EPO in samples was calculated from a standard curve of recombinant human EPO in each assay. EPO activity was normalized to total protein concentration (Pierce BCA assay) in supernatants. Background EPO activity was determined from the unsensitized, antigen-challenged control group. Percent inhibition was calculated from the sensitized, antigen-challenged, vehicle-treated control group in each experiment. Ovalbumin-injected animals dosed topically with 0.1% w/v dexamethasone (dex) served as positive control. Groups were compared by ANOVA with Dunnett's or Tukey's post-hoc tests where appropriate with significance assigned at the 95% confidence level.

In assay [2] the test system is tissue eosinophil peroxidase (EPO). Description: late phase allergic response, conjunctival tissue eosinophil peroxidase (EPO) 24 h after challenge. It is filed as in vivo, guinea pig. The following applies: for inhibition of late phase allergic response: compound alone, EPO 24 hours after challenge (FIGS. 2, 5); for inhibition of late phase response with concomitant olopatadine: concomitant dosing with 0.2% olopatadine (FIGS. 2, 5). The method, then: as §1, §2

For `Clc1ccc2nc(N3CCNCC3)c3nnnn3c2c1` [Compound 2, 8-chloro-4-(piperazin-1-yl)tetrazolo[1,5-a]quinoxaline], in assay [1], the “effect on olopatadine's inhibition of the acute clinical score” value was “does not show suppression of olopatadine's acute phase effects”, the “effect on olopatadine's acute phase effects under different dosing regimens” value was “These effects on acute phase response are not seen” and the “effect on acute phase clinical score on their own” value is given as “Neither Compound 1 nor Compound 2 demonstrate any effect on acute phase clinical score on their own”. Besides, in assay [2], the “inhibition of late phase allergic response” value is “very good inhibitors of late phase allergic response” and the “inhibition of late phase response with concomitant olopatadine” value was “slight increase in the inhibition of late phase response”.

For the compound `CN1CCN(c2nc3ccc(C(F)(F)F)cc3n3cnnc23)CC1` [Compound 1, 4-(4-methylpiperazin-1-yl)-8-(trifluoromethyl)-[1,2,4]triazolo[4,3-a]quinoxaline], in assay [1], the “effect on olopatadine's inhibition of the acute clinical score” value is “dose dependent effect on the inhibition of the acute clinical score relative to olopatadine alone”; the “effect on olopatadine's acute phase effects under different dosing regimens” value was “reduction of olopatadine's acute phase effects and dose dependency”; the “effect on acute phase clinical score on their own” value is given as “Neither Compound 1 nor Compound 2 demonstrate any effect on acute phase clinical score on their own”. In addition, in assay [2], the “inhibition of late phase allergic response” value was “very good inhibitors of late phase allergic response” and the “inhibition of late phase response with concomitant olopatadine” value is “slight increase in the inhibition of late phase response”.
